US7381540B2, “Composition for measuring glucose having improved substrate specificity” (Toyo Boseki Kabushiki Kaisha, priority 2005, dated 2008)

B1: wild type PQQGDH: wild type PQQ dependent glucose dehydrogenase (Toyobo GLD-321) (protein, listed as Acinetobacter baumannii)
chain: DIPLTPAQFAKAKTENFDKKVILSNLNKPHALLWGPDNQIWLTERATGKILRVNPVSGSAKTVFQVPEIVSDADGQNGLLGFAFHPDFKHNPYIYISGTFKNPKSTDKELPNQTIIRRYTYNKTTDTFEKPIDLIAGLPSSKDHQSGRLVIGPDQKIYYTIGDQGRNQLAYLFLPNQAQHTPTQQELNSKDYHTYMGKVLRLNLDGSVPKDNPSFNGVVSHIYTLGHRNPQGLAFAPNGKLLQSEQGPNSDDEINLVLKGGNYGWPNVAGYKDDSGYAYANYSAATNKSQIKDLAQNGIKVATGVPVTKESEWTGKNFVPPLKTLYTVQDTYNYNDPTCGEMAYICWPTVAPSSAYVYTGGKKAIPGWENTLLVPSLKRGVIFRIKLDPTYSTTLDDAIPMFKSNNRYRDVIASPEGNTLYVLTDTAGNVQKDDGSVTHTLENPGSLIKFTYNGK

Legend:
[1] = system: modified PQQGDH; experiment: Substrate specificity using glucose assay system (ferricyanide reduction, absorbance 420 nm); type: biochemical; conditions: for activity with respect to maltose compared with the control (in words): substrate concentration of 4.8 mM, in some cases
Procedure: D-glucose+ferricyanide ion+PQQGDH D-glucono-1,5-lactone+ferrocyanide ion
Specificity to each substrate can be determined by changing D-glucose to other saccharides. The presence of the ferrocyanide ion produced by reduction of the ferricyanide ion was confirmed by measuring the decrease of absorbance at a wavelength of 420 nm by spectrophotometry.
A. […]
B. Potassium ferricyanide solution: 50 mM (0.165 g potassium ferricyanide (molecular weight: 329.25) dissolved in 10 ml of distilled water)
C. PQQGDH solution: 31000 U/ml (approx. 128 mg PQQGDH (Toyobo: GLD-331) dissolved in 5 ml of distilled water)
D. Substrate solution (D-glucose solution or maltose solution): 100 or 400 mM
• 1. The following reaction mixture was prepared in a light shielding bottle, and stored on ice (prepared at use). 48.2 mL of each buffer solution (pH6.5) (A) • 4.0 mL of potassium ferricyanide solution (B) • 0.19 mL of (C) • 2. 2.65 ml of the reaction mixture and 0.3 ml of additive were placed in a test tube (plastic) and pre-warmed for 5 minutes at 37° C. • 3. 0.15 ml of substrate solution (D) were added and mixed gently. • 4. The reduction in the absorbance relative to water at 420 nm was recorded for 1 to 3 minutes with a spectrophotometer while maintaining at a temperature of 37° C., and the ΔOD per minute was calculated from the initial linear portion of the curve (ΔOD test). At the same time, the same procedure was carried out with the exception of adding distilled water instead of glucose solution followed by measurement of the blank (ΔOD blank).
The above-mentioned procedure was carried out at each of the predetermined concentrations shown in Tables 1 to 3 using as additives succinic acid, adipic acid, suberic acid, pimeric acid, potassium chloride, ammonium chloride, diammonium hydrogen citrate, malonic acid, L-lysine, taurine, 3,3-dimethylglutaric acid, malic acid, glutaric acid, calcium glycerate, amino-n-butyric acid, sodium glycolate, sodium α-ketoglutarate, fumaric acid, glycerin, glutamic acid and serine. And the procedure was also carried out for those not containing additives to assess the effects of additives.
Variation in absorbance per unit time was determined by calculating ΔOD/min(ΔOD test−ΔOD blank)
To evaluate whether activity had declined with respect to sugars other than glucose, the ΔOD/min (a) with D-glucose as the substrate solution and the ΔOD/min (b) with the other sugar in place of D-glucose as the substrate solution were measured, and the relative value ((b)/(a)×100) was calculated given 100 as the measurement value with glucose as the substrate.
In each of Tables 3 to 5, in the case the value of the ratio of measured values of maltose and glucose (maltose/glucose) relative to the control (control: no addition) is small, activity with respect to maltose during glucose measurement decreases.

[2] = system: modified PQQGDH; experiment: as above; type: biochemical; conditions: potassium phosphate buffer pH 7.0
[3] = system: modified PQQGDH; experiment: Maltose activity of glucose electrode loaded with modified PQQGDH (oxidation current, potassium ferricyanide mediator); type: biochemical, Acinetobacter baumannii strain NCIMB11517; conditions: for Maltose Activity (%): solute 50 mM, pH 5.5, glucose or maltose 4 mM, 0.1 M potassium ferricyanide, +0.35 V, 25° C.; for Maltose Activity of Glucose Electrode: 50 mM solvent, 1 mM calcium chloride, 0.1% Triton X-100
Procedure: 0.5 g of carbon graphite were placed in a mortar followed by the addition of 0.3 ml of liquid paraffin and kneading with a pestle for 30 minutes to produce a carbon paste. The resulting carbon paste was spread onto a platinum electrode followed by the addition of 10 μl of the modified PQQGDH solution (2,000 U/ml) produced in Example 2 and air drying for 30 minutes at room temperature. A cut cellulose semi-permeable membrane (molecular weight: 8,000) was placed over the dried enzyme electrode and the semi-permeable membrane was immobilized with plastic O-rings. The glucose electrode produced in this manner was then used after preliminarily immersing in the cold reaction solvent for 30 minutes.
The substances listed in Table 1 were used as solutes, and buffers were respectively prepared having a final concentration of 50 mM (pH 5.5). Each of the solvents contained an activator/stabilizer in the form of calcium chloride at 1 mM and surfactant in the form of 0.1% Triton X-100 in addition to the solute listed in Table 1. Potassium ferricyanide was dissolved in each of the produced solvents to a concentration of 0.1 M to prepare reaction solutions.
50 mM phosphoric acid or pimeric acid solution containing 1 mM calcium chloride and 0.1% Triton X-100 (consisting of three types having pH values of 5.0, 6.0 and 7.0, respectively) were prepared. Maltose activity of the glucose electrode was investigated for each according to the method of Example 5.

[4] = Maltose activity of purified PQQGDH by GDH activity measurement (PMS/DCPIP, Test Example 1); type: biochemical, Acinetobacter baumannii strain NCIMB11517; conditions: substrate concentration in the assay mixture 4.8 mM; PIPES-NaOH pH 6.5, 37° C.
Procedure: D-glucose+PMS+PQQGDH→D-glucono-1,5-lactone+PMS (red)
PMS (red)+DCPIP→PMS+DCPIP (red)
The presence of DCPIP (red) formed by reduction of […] (DCPIP) by phenazine methosulfate (PMS) (red) was measured by spectrophotometry at 600 nm.
• A. D-glucose reagent: 1.0 M (1.8 g D-glucose (molecular weight: 180.16)/10 ml H2O) • B. PIPES-NaOH buffer: pH 6.5, 50 mM (1.51 g of PIPES (molecular weight: 302.36) suspended in 60 ml of water dissolved in 5 N NaOH followed by the addition of 2.2 ml of 10% Triton X-100; adjusted to pH of 6.5±0.5 at 25° C. using 5 N NaOH and brought to a final volume of 100 ml by addition of water) • C. PMS solution: 24 mM (73.52 mg of phenazine methosulfate (molecular weight: […])/10 ml H2O) • D. DCPIP solution: 2.0 mM (6.5 mg of […]/10 ml H2O • E. Enzyme diluent: 50 mM PIPES-NaOH buffer containing 1 mM CaCl2, 0.1% Triton X-100 and 0.1% BSA (pH: 6.5) Procedure:
The following reaction mixture was prepared in a light-protected bottle and stored on ice (prepared at the time of use). • 1. […]
The reduction in the absorbance relative to water at 600 nm was recorded for 4 to 5 minutes with a spectrophotometer while maintaining the temperature of the mixture at 37° C., and the ΔOD per minute was calculated from the initial linear portion of the curve (OD test). […]
Activity was calculated using the following formula. […]

[5] = glutaric acid buffer pH 7.0, reagent 0.1%, substrate 4.8 mM, control 0.86
[6] = glutaric acid buffer pH 7.0, reagent 0.1%, substrate 19.2 mM, control 0.94
[7] = glutaric acid buffer pH 7.0, reagent 1%, substrate 4.8 mM, control 0.86
[8] = glutaric acid buffer pH 7.0, reagent 1%, substrate 19.2 mM, control 0.94
[9] = potassium phosphate buffer pH 7.0, reagent 0.5%, substrate 19.2 mM, control 0.93
[10] = potassium phosphate buffer pH 7.0, reagent 1%, substrate 19.2 mM, control 0.93
[11] = reagent 0.5%, substrate 4.8 mM, control 0.85
[12] = reagent 1%, substrate 4.8 mM, control 0.85
[13] = reagent 2%, substrate 4.8 mM, control 0.85
[14] = reagent 2%, substrate 19.2 mM, control 0.93
[15] = phthalic acid buffer pH 7.0, reagent 0.05%, substrate 4.8 mM, control 0.72
[16] = phthalic acid buffer pH 7.0, reagent 0.05%, substrate 19.2 mM, control 0.75
[17] = phthalic acid buffer pH 7.0, reagent 0.1%, substrate 4.8 mM, control 0.72
[18] = phthalic acid buffer pH 7.0, reagent 0.1%, substrate 19.2 mM, control 0.75
[19] = phthalic acid buffer pH 7.0, reagent 0.2%, substrate 4.8 mM, control 0.72
[20] = phthalic acid buffer pH 7.0, reagent 0.2%, substrate 19.2 mM, control 0.75

Row | Molecule | Maltose/glucose ratio [1, 5] | Maltose/glucose ratio [1, 6] | Maltose/glucose ratio [1, 7] | Maltose/glucose ratio [1, 8] | Maltose/glucose ratio [1, 9] | Maltose/glucose ratio [1, 10] | Maltose/glucose ratio [2, 11] | Maltose/glucose ratio [2, 12] | Maltose/glucose ratio [2, 13] | Maltose/glucose ratio [2, 14] | Maltose Activity (%) [3] [%] | Maltose/glucose ratio [1, 15] | Maltose/glucose ratio [1, 16] | Maltose/glucose ratio [1, 17] | Maltose/glucose ratio [1, 18] | Maltose/glucose ratio [1, 19] | Maltose/glucose ratio [1, 20] | activity with respect to maltose compared with the control (in words) [1] | further results
1 | CC(C)(CC(=O)O)CC(=O)O [3,3-dimethylglutaric acid] | 0.56 | 0.76 | 0.37 | 0.47 | 0.82 | 0.64 | 0.60 | 0.44 | 0.41 | 0.49 | 14.9 | – | – | – | – | – | – | – | –
2 | O=C(O)CCCCCC(=O)O [Pimeric acid] | 0.63 | 0.78 | 0.39 | 0.44 | 0.86 | 0.80 | 0.71 | 0.58 | 0.44 | 0.58 | 23.1 | 0.64 | 0.64 | 0.71 | 0.58 | 0.76 | 0.58 | did not decrease | maltose activity on lowering the pH (in words) ([3]; pH 5.0, 6.0, 7.0, compared with phosphoric acid): decrease more; Maltose Activity of Glucose Electrode ([3]; pH 5.0): 15.2%; Maltose Activity of Glucose Electrode ([3]; pH 6.0): 23.8%; Maltose Activity of Glucose Electrode ([3]; pH 7.0): 49.1%
3 | O=C(O)CCCCCCC(=O)O [Suberic acid] | – | – | – | – | – | – | – | – | – | – | 20.2 | – | – | – | – | – | – | – | Maltose/glucose ratio ([1]; glutaric acid buffer pH 7.0, reagent 0.03%, substrate 4.8 mM, control 0.86): 0.68; Maltose/glucose ratio ([1]; glutaric acid buffer pH 7.0, reagent 0.03%, substrate 19.2 mM, control 0.94): 0.86; Maltose/glucose ratio ([1]; glutaric acid buffer pH 7.0, reagent 0.33%, substrate 4.8 mM, control 0.86): 0.38; Maltose/glucose ratio ([1]; glutaric acid buffer pH 7.0, reagent 0.33%, substrate 19.2 mM, control 0.94): 0.49; Maltose/glucose ratio ([1]; phthalic acid buffer pH 7.0, reagent 0.017%, substrate 4.8 mM, control 0.72): 0.66; Maltose/glucose ratio ([1]; phthalic acid buffer pH 7.0, reagent 0.017%, substrate 19.2 mM, control 0.75): 0.69; Maltose/glucose ratio ([1]; phthalic acid buffer pH 7.0, reagent 0.033%, substrate 4.8 mM, control 0.72): 0.67; Maltose/glucose ratio ([1]; phthalic acid buffer pH 7.0, reagent 0.033%, substrate 19.2 mM, control 0.75): 0.62; Maltose/glucose ratio ([1]; phthalic acid buffer pH 7.0, reagent 0.066%, substrate 4.8 mM, control 0.72): 0.70; Maltose/glucose ratio ([1]; phthalic acid buffer pH 7.0, reagent 0.066%, substrate 19.2 mM, control 0.75): 0.55
4 | O=C(O)CCC(=O)O [Succinic acid] | 0.55 | 0.75 | 0.35 | 0.52 | 0.84 | 0.62 | 0.65 | 0.47 | 0.34 | 0.45 | 22.5 | 0.65 | 0.56 | 0.73 | 0.57 | 0.77 | 0.60 | did not decrease | –
5 | B1 | – | – | – | – | – | – | – | – | – | – | – | – | – | – | – | – | – | – | maltose activity (ratio of the activity value when using maltose to the activity value when using glucose) [4]: 110%
